These results are taken from patent US11583570B2, “Use of autoinducer-related pathway in inducing apoptosis and anti-infective therapy” (TSINGHUA UNIVERSITY, priority 2017, dated 2023).

The target of one data set is T1, TNFR1 (1-293) mutant (Homo sapiens, UniProt P19438).
T1 construct: human TNFR1 (1-293) mutant was amplified from human TNFR1 with specific primers and cloned into peGFP-N1 vector; expressed in transfected cells; host or cells: HeLa cells
T1 sequence (P19438 30-293): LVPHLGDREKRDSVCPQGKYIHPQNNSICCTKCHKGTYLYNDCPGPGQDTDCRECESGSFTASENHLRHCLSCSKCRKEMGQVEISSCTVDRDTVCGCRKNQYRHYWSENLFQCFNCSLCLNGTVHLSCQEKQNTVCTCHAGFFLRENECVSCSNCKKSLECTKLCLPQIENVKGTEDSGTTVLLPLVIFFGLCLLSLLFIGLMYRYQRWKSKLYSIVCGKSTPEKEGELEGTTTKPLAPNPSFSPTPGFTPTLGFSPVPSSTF
The data set is described as follows: Single molecule photo-bleaching step counting (MSFQ), TNFR1 in HELA cells. The class given is cell-based. From the text:
Then the cells were stimulated with HSLs, TNF α, or left untreated, and washed twice with PBS and fixed with 4% paraformaldehyde before imaging. GFP was excited at 488 nm with a laser power of 5 mW measured after the laser passing through the objective. […] The EM gain of the EMCCD camera was set at 300. Movies of 400 frames were acquired for each sample at a full-frame rate of 10 Hz. For imaging analysis, the background fluorescence was firstly subtracted from the movie acquired from the fixed cells using the rolling ball method in Image J software, and regions of interest on movies were selected manually according to the outline of cells. To analyze the bleaching steps, the fluorescence time courses of each fluorescent spots were first constructed by Image J plugin and bleaching steps were then counted manually.

The test system of the next data set is mouse splenocytes. The data set is described as follows: AnnexinV and PI staining, B6 splenocytes. The format is cell-based. The protocol: (§1) Cell apoptosis was detected with Annexin V/PI apoptosis detection Kit. Briefly, cells were stimulated with HSLs or left untreated. 6 hrs later, cells were collected and stained with Annexin VFITC and PI for 15 min at RT, then the apoptotic effect was measured by flow cytometry. OT-I or OT-II splenocytes were pulsed with specific peptides or PMA and ionomycin mixture with or without HSLs or TNF α plus cycloheximide. 24 hrs later, cells and supernatants were collected separately. For OT-I activation, cells were stained with CD69 and CD8. For OT-II activation, cells were stained with CD69 and CD4. Cell activation was measured by flow cytometry. All supernatants were detected for IL-2 secretion by ELISA.
(§2) In order to verify TNFR1-FADD-caspase8-caspase3 pathway inhibitor can block immunocyte apoptosis caused by 3OC12-HSL clinically. The inventors use a clinical version of caspase inhibitor Emricasan as a test. […] To be specific, in a 12 plate, THP-1 cells were cultured with indicated concentrations of 3OC and Emricasan. After 1 hr, cells were collection for flow cytometric analysis of AnnexinV and PI. […] In FIG. 17b, live cell percentage of different treatment were enumerated by flow cytometry. Bar graphs of live cell percentage are depicted by mean±SEM. Then samples prepared as in FIG. 17a and FIG. 17b were used for WB analysis for the activation (cleavage) of Caspase 8 and 3. […]

The test system of a further data set is THP-1 cell line. Nature of the data set: Annexin V/PI apoptosis detection, THP-1. The format is cell-based, human. As to conditions: THP-1, 3OC plus Emricasan, 1 hr, AnnexinV and PI. The protocol: as §1, §2
For a further data set, the system named is Caspase 8 and 3. The data set is described as follows: WB analysis of Caspase 8 and 3 cleavage in THP-1. The format is cell-based, human. As to conditions: THP-1, 1 hr and 2 hr. Here is the method: In order to verify TNFR1-FADD-caspase8-caspase3 pathway inhibitor can block immunocyte apoptosis caused by 3OC12-HSL clinically. The inventors use a clinical version of caspase inhibitor Emricasan as a test. […] To be specific, in a 12 plate, THP-1 cells were cultured with indicated concentrations of 3OC and Emricasan. After 1 hr, cells were collection for flow cytometric analysis of AnnexinV and PI. […] In FIG. 17b, live cell percentage of different treatment were enumerated by flow cytometry. Bar graphs of live cell percentage are depicted by mean±SEM. Then samples prepared as in FIG. 17a and FIG. 17b were used for WB analysis for the activation (cleavage) of Caspase 8 and 3. […] In FIG. 17c, the incubate time of the left panel is 1 hr, and the […] panel is 2 hr. (Casp 8: Caspase 8, Cld Casp 8: Cleaved-Caspase 8, Casp 3: Caspase 3, Cld Casp 3: Cleaved-Caspase 3). […] Furthermore, the inventors use B6 splenocytes (separated from C57BL/6 spleen) as the test.

A further data set concerns the target T2, TNFR1 (Mus musculus, UniProt P25118).
T2 construct: To track individual TNFR1 on the cell membrane; endogenous in cells
T2 sequence (P25118 30-454): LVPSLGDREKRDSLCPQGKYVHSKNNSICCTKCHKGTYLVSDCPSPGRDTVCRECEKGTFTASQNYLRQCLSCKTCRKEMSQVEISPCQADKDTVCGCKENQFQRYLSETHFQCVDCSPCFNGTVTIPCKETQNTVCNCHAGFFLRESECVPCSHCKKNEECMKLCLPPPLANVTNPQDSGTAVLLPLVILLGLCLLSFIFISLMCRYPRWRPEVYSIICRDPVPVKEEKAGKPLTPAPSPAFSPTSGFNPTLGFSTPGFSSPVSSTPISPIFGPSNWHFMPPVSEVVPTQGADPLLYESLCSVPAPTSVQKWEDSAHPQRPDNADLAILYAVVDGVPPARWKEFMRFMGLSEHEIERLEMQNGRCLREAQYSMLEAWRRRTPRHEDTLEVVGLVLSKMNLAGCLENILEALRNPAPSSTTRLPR
The data set is described as follows: Quantum dot-based single particle tracking, TNFR1. The class given is cell-based. The protocol:
To track individual TNFR1 on the cell membrane, anti-TNFR1 IgG (was first papain digested to yield a Fab fragment. The Fab was then conjugated with biotin through the unique —SH at its C terminal. To prepare anti TNFR1 Fab QD conjugates, a solution of 0.7 nM anti TNFR1—Fab-biotin in 1 ml of DMEM was added drop-wise to 1 ml of 2 nM QD 605-streptavidin conjugate. Cell monolayers (50% confluent) previously serum starved for 1 hr were treated with 3OC12 HSL or left untreated and incubated with […] of the final anti TNFR1-Fab-QD solution at 25° C. for 2 min. The cells were then washed twice with PBS at 25° C., placed in serum-free medium, and loaded for imaging. For single-FcRγIIA tracking, Fc fragment was obtained by papain digestion of an anti-BSA IgG (Sigma Aldrich). Fc-QD conjugate was produced as described before. Cos-1 cells were transiently transfected with Fcγ RIIA plasmid, 24 hrs later, cells were stimulated with 3OC12 HSL or left untreated and incubated with […] of the final Fc-QD solution at 25° C. for 2 min. Quantum dot-labeled cells were imaged in TIRF mode. The fluorescence was excited at 488 nm and gated by a band-pass filter (575-640, Carl Zeiss). The excitation power was about 2 mW measured after the objective. Movies of 400 frames were acquired for each sample at a full-frame rate of 17 Hz. Individual trajectories were constructed by Utrack written in Matlab. Diffusion coefficient and plot area were calculated by customized programs written with Matlab. For motion pattern determination by MSD-t analysis 5: linear, simple Brownian diffusion; open-up parabolic, directed diffusion; open-down parabolic, restricted diffusion; and near zero, stationary.

In data set [1] the test system is 3OC12 HSL-induced cytotoxicity. Nature of the data set: Caspase inhibitors against 3OC12 HSL cytotoxicity. As to conditions: in comparison with 3OC12 HSL treatment alone. The format is cell-based. Here is the method: as §1

In the case of `CCCCCC(=O)CC(=O)N[C@H]1CCOC1=O` [3-oxo-C8], at TNFR1 (1-293) mutant, the “TNFR1 trimerization (three step quenching)” value was “failed to increase”. Take `C[C@H](NC(=O)C(=O)Nc1ccccc1C(C)(C)C)C(=O)N[C@@H](CC(=O)O)C(=O)COc1c(F)c(F)cc(F)c1F` [Emricasan]: the “blocking of 3OC12-HSL's apoptosis” value in the data set on mouse splenocytes and in the data set on THP-1 cell line was “good effect in blocking 3OC12-HSL's apoptosis” in each case. Besides, in the data set with Caspase 8 and 3, the “blocking of Caspase 8 and 3 cleavage” value is reported as “has effect in blocking 3OC12-HSL's apoptosis mediated by Caspase”. With MβCD, on TNFR1, the TNFR1 diffusion coefficient result was “higher diffusion coefficient” and the “TNFR1 x-y surface area coverage” value is reported as “larger area coverage”. TNFα: the “TNFR1 trimerization (three step quenching)” value on TNFR1 (1-293) mutant is listed as “similarly occurred”. For Z-VAD, the “effect on 3OC12 HSL cytotoxicity” value in data set [1] is recorded as “reduced the cytotoxicity”.
